Experimental data reported in patent publication US12465652B2 (AMGEN INC., priority 2017, dated 2025).

Legend:
[1] = target: T1, human GLP-IR (Homo sapiens, UniProt P43220); experiment: GLP1 activity | EC50 (pM)
Source text: Table printed on a drawing sheet, FIG. 1A
Head of the field: GLP1 activity | EC50 (pM)
The patent's description of the figure: FIG. 1A-1B: Synthetic Peptides (FIG. 1A discloses SEQ ID NOS 3948 and 3275-3298 and FIG. 1B discloses SEQ ID NOS 3948 and 3299-3302, all respectively, in order of appearance)
First copying reader's note: The first head row prints a reference sequence (residues at positions 7-35) above the position numbers; two fully empty rows separate groups of peptides.
Where the first naming reader finds the target: passage: CHOK1 cells stably expressing the human GLP-IR were used to measure peptide or recombinant fusion-induced cAMP production

[2] = target: T1, human GLP-IR; experiment: GLP1 activity | EC50 (M)
Source text: Table printed on a drawing sheet, FIG. 1A Head of the field: GLP1 activity | EC50 (M) The patent's description of the figure: FIG. 1A-1B: Synthetic Peptides (FIG. 1A discloses SEQ ID NOS 3948 and 3275-3298 and FIG. 1B discloses SEQ ID NOS 3948 and 3299-3302, all respectively, in order of appearance) First copying reader's note: The first head row prints a reference sequence (residues at positions 7-35) above the position numbers; two fully empty rows separate groups of peptides. Where the first naming reader finds the target: passage: CHOK1 cells stably expressing the human GLP-IR were used to measure peptide or recombinant fusion-induced cAMP production

T1 sequence (P43220 24-463 limits assumed): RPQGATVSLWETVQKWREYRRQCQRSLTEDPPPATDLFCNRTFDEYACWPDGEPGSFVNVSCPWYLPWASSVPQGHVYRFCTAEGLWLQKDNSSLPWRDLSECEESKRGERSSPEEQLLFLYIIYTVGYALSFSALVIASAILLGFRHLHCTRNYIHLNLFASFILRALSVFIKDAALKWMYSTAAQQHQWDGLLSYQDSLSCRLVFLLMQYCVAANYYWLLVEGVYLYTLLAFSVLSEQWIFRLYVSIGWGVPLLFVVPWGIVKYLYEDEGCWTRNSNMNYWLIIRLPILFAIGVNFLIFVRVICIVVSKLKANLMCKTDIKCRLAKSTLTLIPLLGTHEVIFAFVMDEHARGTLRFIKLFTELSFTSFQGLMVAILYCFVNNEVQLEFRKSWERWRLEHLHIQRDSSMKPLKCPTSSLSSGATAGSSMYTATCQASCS

SMILES | EC50 [1] [nM] | EC50 [2] [nM]
CC[C@H](C)[C@H](NC(=O)[C@H](Cc1ccccc1)NC(=O)[C@H](CCC(=O)O)NC(=O)[C@H](CCCCN)NC(=O)[C@H](C)NC(=O)[C@H](C)NC(=O)[C@H](CCC(N)=O)NC(=O)CNC(=O)[C@H](CCC(=O)O)NC(=O)[C@H](CC(C)C)NC(=O)[C@H](Cc1ccc(O)cc1)NC(=O)[C@H](CO)NC(=O)[C@H](CO)NC(=O)[C@@H](NC(=O)[C@H](CC(=O)O)NC(=O)[C@H](CO)NC(=O)[C@@H](NC(=O)[C@H](Cc1ccccc1)NC(=O)[C@@H](NC(=O)CNC(=O)[C@H](CCC(=O)O)NC(=O)CNC(=O)[C@H](Cc1c[nH]cn1)NC(=O)[C@@H](N)Cc1c[nH]cn1)[C@@H](C)O)[C@@H](C)O)C(C)C)C(=O)N[C@@H](C)C(=O)N[C@@H](Cc1c[nH]c2ccccc12)C(=O)N[C@@H](CC(C)C)C(=O)N[C@H](C(=O)N[C@@H](CCCCN)C(=O)NCC(=O)O)C(C)C [3166962#1, HHGEGTFTSDVSSYLEGQAAKEFIAWLVKG] | 0.363 | 
CC[C@H](C)[C@H](NC(=O)[C@H](Cc1ccccc1)NC(=O)[C@H](CCC(=O)O)NC(=O)[C@H](CCCCN)NC(=O)[C@H](C)NC(=O)[C@H](C)NC(=O)[C@H](CCC(N)=O)NC(=O)CNC(=O)[C@H](CCC(=O)O)NC(=O)[C@H](CC(C)C)NC(=O)[C@H](Cc1ccc(O)cc1)NC(=O)[C@H](CO)NC(=O)[C@H](CO)NC(=O)[C@@H](NC(=O)[C@H](CC(=O)O)NC(=O)[C@H](CO)NC(=O)[C@@H](NC(=O)[C@H](Cc1ccccc1)NC(=O)[C@@H](NC(=O)CNC(=O)[C@H](CCC(=O)O)NC(=O)CNC(=O)[C@H](Cc1c[nH]cn1)NC(=O)[C@H](C)N)[C@@H](C)O)[C@@H](C)O)C(C)C)C(=O)N[C@@H](C)C(=O)N[C@@H](Cc1c[nH]c2ccccc12)C(=O)N[C@@H](CC(C)C)C(=O)N[C@H](C(=O)N[C@@H](CCCCN)C(=O)NCC(=O)O)C(C)C [3166749#1, AHGEGTFTSDVSSYLEGQAAKEFIAWLVKG] |  | 0.0669
CC[C@H](C)[C@H](NC(=O)[C@H](Cc1ccccc1)NC(=O)[C@H](CCC(=O)O)NC(=O)[C@H](CCCCN)NC(=O)[C@H](C)NC(=O)[C@H](C)NC(=O)[C@H](CCC(N)=O)NC(=O)CNC(=O)[C@H](CCC(=O)O)NC(=O)[C@H](CC(C)C)NC(=O)[C@H](Cc1ccc(O)cc1)NC(=O)[C@H](CO)NC(=O)[C@H](CO)NC(=O)[C@@H](NC(=O)[C@H](CC(=O)O)NC(=O)[C@H](CO)NC(=O)[C@@H](NC(=O)[C@H](Cc1ccccc1)NC(=O)[C@@H](NC(=O)CNC(=O)[C@H](CCC(=O)O)NC(=O)CNC(=O)[C@H](Cc1c[nH]cn1)NC(=O)CN)[C@@H](C)O)[C@@H](C)O)C(C)C)C(=O)N[C@@H](C)C(=O)N[C@@H](Cc1c[nH]c2ccccc12)C(=O)N[C@@H](CC(C)C)C(=O)N[C@H](C(=O)N[C@@H](CCCCN)C(=O)NCC(=O)O)C(C)C [3166961#1, GHGEGTFTSDVSSYLEGQAAKEFIAWLVKG] | 0.205 | 
